Results on two substances are retold here after patent US20100204138A1, “USE OF TRP6-T[…] D-LEU6-[…] […] AGENTS” (priority 2007, published 2010).

Assay [1] has as its system hepatitis B virus (HBV) ayw strain. The experiment in a line: HBV experimental assay in HepG2-2.2.15 cells (TaqMan PCR of secreted HBV DNA). Type of assay: cell-based. To be noted: 10 micrograms per ml, six days. (In general: Quantitative PCR measures a nucleic acid by following its amplification.)
In a further assay the test system is HCMV strain AD169. The experiment in a line: HCMV plaque formation assay in MRC-5 cells. Type of assay: cell-based. To be noted: 10 micrograms per ml, 7-10 days.
Another assay relates to Streptococcus pneumoniae. Kind of assay: Streptococcus pneumoniae growth assay. Type of assay: cell-based. The following applies: 10 micrograms per ml; 5×10^5 CFU/mL.
Another assay concerns A549 cells. Kind of assay: Apoptosis prevention assay (C2 ceramide, Annexin-5). Type of assay: cell-based, human. The following applies: 10 micrograms per ml, 30 min pretreatment.
Assay [2] relates to Ovalbumin-restimulated spleen cells of Balb/c mice. The experiment in a line: Th1/Th2 cytokine profiling assay. Type of assay: cell-based, mouse. The following applies: 10 micrograms per ml; murine spleen cells; Ovalbumin restimulation, 72 hours.
The subject of assay [3] is Primary Human endothelial cells (HUVEC). The experiment in a line: Endothelial cell migration assay. Type of assay: cell-based. To be noted: 10 micrograms per ml, 22 hours. Here is the method: Thereafter, designated concentration of testing peptides—10 micrograms per ml—was added in duplicate wells.
The subject of a further assay is HUVEC. Kind of assay: Endothelial tube formation assay. Type of assay: cell-based, human. To be noted: 10 micrograms per ml, 20 hours. From the text:
Positive control was vehicle only.

As for “Pyr-His-Trp-Ser-Tyr-D-His(Bzl)-D-Leu-Arg-Pro-NHEt [Peptide 2]”, the “inhibition of HBV replication as compared to the virus control infection” value in assay [1] stood at 61.6%. Besides, the “inhibition of HCMV plaque formation as compared to the virus control” value with HCMV strain AD169 was “did not inhibit”. In the assay on Streptococcus pneumoniae, the “inhibition of the growth of Streptococcus pneumoniae” value is listed as 100%. Moreover, the “reduction of the ceramide-induced apoptosis on human lung cells” value in the assay with A549 cells is recorded as “did not reduce”. Also, in assay [2], the “change of the production of IL-5” value was “did not significantly change”; the “production of IFN-γ, suppressed by” value came to 30.8%; the “production of IL-2, induced by” value was 55.8%; the “production of IL-4, induced/increased by” value was determined as 135.7%. In assay [2], the “production of TNF-alpha, induced by” value is “did not significantly change”. For the same substance, the “inhibition of the migration of human endothelial cells” value in assay [3] is given as 8%. Besides, in the assay on HUVEC, the “inhibition of the tube formation of human endothelial cells” value is listed as 4%.
Consider “Pyr-His-Trp-Ser-Tyr-Trp-Leu-Arg-Pro-Gly-NH2 (HWSYWLRPG; N-terminal pyroglutamate; C-terminal amide; printed: His-Trp-Ser-Tyr-Trp-Leu-Arg-Pro-Gly-) [Peptide 1, LHRH family peptide, commercially available]”, for which the “inhibition of HBV replication as compared to the virus control infection” value in assay [1] is given as 23%. The “inhibition of HCMV plaque formation as compared to the virus control” value in the assay on HCMV strain AD169 is reported as “did not inhibit”. Also, the “inhibition of the growth of Streptococcus pneumoniae” value with Streptococcus pneumoniae was 100%. Besides, the “reduction of the ceramide-induced apoptosis on human lung cells” value in the assay on A549 cells is reported as 22.65%. Also, in assay [2], the “change of the production of IL-5” value is “did not significantly change”; the “production of IFN-γ, induced by” value amounted to 40.2%; the “production of IL-2, induced by” value was 47.1%; the “production of IL-4, induced/increased by” value turned out to be 70.6%. The “production of TNF-alpha, induced by” value in assay [2] came to 45.1%. The “inhibition of the migration of human endothelial cells” value in assay [3] came to 3%. Besides, in the assay on HUVEC, the “inhibition of the tube formation of human endothelial cells” value is 15%.
